Experiment: in vivo
Details: male, Sprague-Dawley, rat, po, 36.99 g/kg
Experimental: (§1) SPF grade Sprague–Dawley rats (n = 6, male, 8–10-week-old, 300 ± 20 g) were obtained from the Guangdong Medical Laboratory Animal Center (Guangzhou, China, Certificate No. SCXK 2022–0002), maintained in environmental conditions with a temperature of 20–25 °C, humidity of 55 ± 15%, and a 12-h light/dark cycle. Animals were acclimated for 7 days prior to drug administration. The experimental procedures and protocols have been approved by the Animal Ethics Committee of the School of Life Sciences, Sun Yat-sen University (Ethics approval No. SYSU-lS-IACUC- 2024–0130, Guangzhou, China), with every effort being made to minimize the suffering of the animals.
(§2) In order to investigate the absorbable components in vivo, Yinling Qushi (YLQS) extract was prepared as follows: 77.76 g of Poria cocos (Schw.) Wolf (Fuling, FL), 29.16 g of Atractylodes macrocephala Koidz. (Baizhu, BZ), 12.96 g of Zingiber officinale Rosc. (Ganjiang, GJ), 19.44 g of Polyporus umbellatus (Pers.) Fries (Zhuling, ZL), 19.44 g of Cinnamomum cassia Presl (Guizhi, GZ), 24.30 g Artemisia capillaris Thunb. (Yinchen, YC), 19.44 g Glehnia littoralis Fr.Schmidt ex Miq. (Beishashen, BSS) and 19.44 g of Glycyrrhiza uralensis Fisch. (Gancao, GC) were weighted. The weighted herbs were mixed thoroughly and extracted with 750 mL boiling water for 1 h, twice. The aqueous extracts were combined, filtered, and concentrated by rotary evaporation to a total volume of 12 mL, with a final extraction yield of 18.5 g crude herbal materials per 1 mL of Yinling Qushi (YLQS) extract.
(§3) SD Rats were fasted for 12 h, followed by orally administrated with Yinling Qushi (YLQS) extract at a dose of 36.99 g/kg (6.7 mL/kg). 200 μL of venous blood was collected at 0 min, 15 min, 30 min, 1 h, 2 h, 4 h, 6 h, 8 h, 10 h, 12 h, and 24 h post-gavage. Serum samples were freshly prepared by centrifugation (3,000 g, 20 min, 4 ℃), supernatant collection and storage at − 80 ℃ till analysis.
(§4) For serum extraction, 90 μL serum of indicated time points were pre-mixed with 10 μL IS working solution (myristic acid-D27, 10 μg/mL in methanol). 1 mL ethyl acetate was added to 100 μL premixed serum, vortexed vigorously for 5 min, and centrifuged (10,000 g, 15 min, 4 ℃) for protein precipitation. 700 μL of supernatant was transferred and evaporated to dryness under nitrogen flow. Prior to assay, samples were re-suspended with 100 μL methanol: distill water solution (4:1, v/v), sonicated and vortex-mixing for dissolve completely, and centrifuged (10,000 g, 20 min, 4 ℃). 10 μL of supernatant was analyzed using a connected system of AQUITY UPLC (Waters Corp., Milford, MA, USA) hybrid ZenoTOF 7600-MS/MS system (AB Sciex, Framingham, MA, USA) with electrospray ionization (ESI) source.
(§5) A reversed-phase Kinetex C18 column (2.1 × 100 mm, 2.6 μm, Phenomenex, CA, USA) was used, with 0.3 mL/min flow rate at 40 ℃. The mobile phase consisted of an aqueous solvent A (0.1% formic acid, v/v) and organic solvent B (acetonitrile with 0.1% formic acid, v/v). The elution gradient was as follows: 5–30% B (0–20 min); 30–95% B (20–27 min), maintained at 95% B (27–32 min); 95–5% B (32–33 min); and 5% B (33–38 min) to equilibrate the system.
(§6) The instrumental parameters of mass spectrometry were as follows: ion source gas 1 and gas 2 were both 55 psi, curtain gas was 35 psi, the CAD gas was 8 psi, and the ion source temperature was 550 °C. The ion spray voltage floating (ISVF) was set to 5500 V for positive mode and − 4500 V for negative mode. The collision energy (CE) and collision energy spread (CES) were set to 35 V and 15 eV, and declustering potential was 80 V. The mass-to-charge ratio (m/z) range was set to 50–1500 Da, with an accumulation time of 0.15 s. Data were collected by SCIEX OS software (version 3.3.0.12027, AB Sciex, Framingham, MA, USA) in information-dependent acquisition (IDA) mode.

| Structure (SMILES) | AUC(0-inf) [ng·h/mL] | AUC(0-t) [ng·h/mL] | Cmax [ng/mL] | Tmax [h] | half-life [h] |
| --- | --- | --- | --- | --- | --- |
| CC(C)=CCCC(C(=O)O)C1C(O)CC2(C)C3=CCC4C(C)(CCC(O)C4(C)C)C3=CCC12C (stereo not drawn) [16alpha-Hydroxydehydrotrametenolic acid] | 136000 | 136000 | 16800 | 4.4 ± 0.75 | 1.78 ± 0.09 |
| CC(C)C(=O)CCC(C(=O)O)C1C(O)CC2(C)C3=C(CCC12C)C1(C)CCC(O)C(C)(C)C1CC3 (stereo not drawn) [Daedaleanic acid B] | 170 ± 27.6 | 129 ± 32.5 | 20.6 ± 0.8 | 1.35 ± 0.68 | 3.84 ± 0.75 |
| CC(=CCCC(C(=O)O)C1C(O)CC2(C)C3=CCC4C(C)(CCC(O)C4(C)C)C3=CCC12C)CO (stereo not drawn) [Dihydroxydehydrotrametenoic acid] | 3270 ± 142 | 3030 ± 356 | 308 ± 35.6 | 4.4 ± 0.75 | 4.98 ± 1.07 |
| CC(C)=CC1CC(C2CCC3(C)C4=CCC5C(C)(CCC(O)C5(C)C)C4=CCC23C)C(=O)O1 (stereo not drawn) [Porilactone A] | 9200 ± 744 | 9460 ± 501 | 846 ± 31.9 | 6.5 ± 1.89 | 2.15 ± 0.24 |

Experiment: Pharmacokinetics of absorbed triterpenoid prototypes in rat serum after oral YLQS extract
Details: male, Sprague-Dawley, 36.99 g/kg
Experimental: as §1, §2, §3, §4, §5, §6

| AUC(0-inf) [ng·h/mL] | AUC(0-t) [ng·h/mL] | Cmax [ng/mL] | Tmax [h] | half-life [h] | Structure (SMILES) |
| --- | --- | --- | --- | --- | --- |
| 2540 ± 264 | 1970 ± 280 | 290 ± 44.5 | 5.6 ± 0.75 | 4.95 ± 0.81 | C=C(C)C1CC=C2C(=CCC3(C)C(C(CCC=C(C)C)C(=O)O)CCC23C)C1(C)CCC(=O)O (stereo not drawn) [16-Deoxyporicoic acid B] |
| 2290 ± 621 | 2710 ± 417 | 214 ± 53.8 | 5.5 ± 0.96 | 4.11 ± 0.82 | C=C(C)[C@@H]1CC=C2C(=CC[C@]3(C)[C@@H]([C@@H](CCC=C(C)C)C(=O)O)[C@H](O)C[C@@]23C)[C@@]1(C)CCC(=O)O [Poricoic acid B] |
| 105 ± 13.6 | 77.1 ± 12.4 | 13.2 ± 2 | 4 ± 1.41 | 4.61 ± 1.21 | C=C(C)[C@@H]1CC=C2C(=CC[C@]3(C)[C@@H]([C@@H](CCC(=C)C(C)(C)O)C(=O)O)[C@H](O)C[C@@]23C)[C@@]1(C)CCC(=O)OC [Poricoic acid DM] |
| 82 ± 5.1 | 68 ± 10.1 | 7.5 ± 1.3 | 6.4 ± 1.72 | 5.51 ± 0.88 | C=C(C)C1CC=C2C(=CCC3(C)C(C(CCC(=C)C(C)(C)O)C(=O)O)C(O)CC23C)C1(C)CCC(=O)O (stereo not drawn) [Poricoic acid D] |
| 223 ± 30.6 | 205 ± 25.1 | 16 ± 2.7 | 8.5 ± 1.5 | 6.64 ± 0.75 | C=C(C)C1CC=C2C(=CCC3(C)C(C(CCC=C(C)CO)C(=O)O)C(O)CC23C)C1(C)CCC(=O)O (stereo not drawn) [Poricoic acid E] |
| 4420 ± 367 | 4090 ± 442 | 470 ± 89.2 | 5.5 ± 0.96 | 3.5 ± 1.08 | C=C(C)[C@@H]1CCC2=C(CC[C@]3(C)[C@@H]([C@@H](CCC=C(C)C)C(=O)O)[C@H](O)C[C@@]23C)[C@@]1(C)CCC(=O)O [Poricoic acid G] |

Experiment: not given
Details: rat, in vivo

| Structure (SMILES) | Absorption pattern of serum concentration-time curve |
| --- | --- |
| CC(C)=CC1CC(C2CCC3(C)C4=CCC5C(C)(CCC(O)C5(C)C)C4=CCC23C)C(=O)O1 (stereo not drawn) [Porilactone A] | double-peak absorption pattern |

— paper PMC12125420, “Yinling Qushi Granule as a therapeutic agent for metabolic syndrome: pharmacological, molecular targets, and pharmacokinetic insights” (Advanced Biotechnology, 2025)
